# From US11078183B2, “Tetrahydrate of H3 ligand, its process of preparation and pharmaceutical compositions comprising the same” (BIOPROJET, priority 2017, dated 2021)
# Counter-ions that a name gives are not always drawn. Like-named read-outs stand apart in the source and are kept apart here.
# Assays:
# [1] = molecular target: histamine H3 (Homo sapiens, UniProt Q9Y5N1); conditions: among the H3 ligands disclosed in WO 2006/117609; cited from earlier work
# [2] = Stability studies according to ICH (purity on anhydrous substance over time); assay type: physicochemical; conditions: for purity on anhydrous substance: specifications 98.0-102.0%; for degradation observed (in words): up to 6 months
# Experimental: Stability studies have been performed according to ICH.
# Similar results were obtained for the 3 months sample at 30° C./65% relative humidity:
# Stability has been assessed under ICH conditions.
# [3] = Hygroscopy: water content over storage time; assay type: physicochemical
# Excerpt: This compound is hygroscopic. It uptakes water during time.
# [4] = Degradation on drying (main impurity over drying time); assay type: physicochemical
# [5] = as above; assay type: physicochemical; conditions: for Main impurity: drying at 60° C.
# Experimental: Drying was not complete at 60° C. over 24 hours.
# [6] = 40° C./75% relative humidity, 0 months
# [7] = 40° C./75% relative humidity, 1 month
# [8] = 40° C./75% relative humidity, 3 months
# [9] = 40° C./75% relative humidity, 6 months
# histamine H3, sequence (Q9Y5N1 whole entry): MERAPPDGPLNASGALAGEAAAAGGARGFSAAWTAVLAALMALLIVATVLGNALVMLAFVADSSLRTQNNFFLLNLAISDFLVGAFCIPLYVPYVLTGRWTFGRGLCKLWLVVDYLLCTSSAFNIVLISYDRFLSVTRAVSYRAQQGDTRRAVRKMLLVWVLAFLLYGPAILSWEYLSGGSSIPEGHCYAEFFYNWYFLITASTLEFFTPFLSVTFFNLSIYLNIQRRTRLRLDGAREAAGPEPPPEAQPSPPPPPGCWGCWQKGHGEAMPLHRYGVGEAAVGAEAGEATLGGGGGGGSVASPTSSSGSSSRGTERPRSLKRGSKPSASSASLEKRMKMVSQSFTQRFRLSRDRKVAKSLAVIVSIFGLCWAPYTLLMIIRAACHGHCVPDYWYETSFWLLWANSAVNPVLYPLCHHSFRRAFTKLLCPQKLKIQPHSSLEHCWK
smiles,measurement,setting,value
C[C@H]1CCCN(CCCOc2ccc(-c3cc[n+]([O-])cc3)cc2)C1 [(3S)-4-{4-[3-(3-methylpiperidin-1-yl)propoxy]phenyl}pyridine 1-oxide],potency as H3 ligand (in words),[1],very potent
"C[C@H]1CCCN(CCCOc2ccc(-c3cc[n+]([O-])cc3)cc2)C1 [Example 1, (3S)-4-{4-[3-(3-methylpiperidin-1-yl)propoxy]phenyl}pyridine 1-oxide, dihydrochloride, tetrahydrate]",purity on anhydrous substance,[2]; [6],99.6
same,purity on anhydrous substance,[2]; [7],100.3
same,purity on anhydrous substance,[2]; [8],99.7
same,purity on anhydrous substance,[2]; [9],100.3
same,degradation observed (in words),[2]; 40° C./75% relative humidity,no degradation is observed
same,hygroscopicity (in words),[3],not hygroscopic
same,water content,[3]; [6],16 % in weight
same,water content,[3]; [7],16 % in weight
same,water content,[3]; [8],15 % in weight
same,water content,[3]; [9],16 % in weight
same,water content,"[3]; 40° C./75% relative humidity, 12 months",15 % in weight
same,water content modification (in words),"[3]; 40° C./75% relative humidity, up to 12 months",no water content modification is observed
"C[C@H]1CCCN(CCCOc2ccc(-c3cc[n+]([O-])cc3)cc2)C1 [Example 52 of WO 2006/117609, (3S)-4-{4-[3-(3-methylpiperidin-1-yl)propoxy]phenyl}pyridine 1-oxide, dihydrochloride]",outcome of drying (in words),"[4]; drying at 80° C. or 100° C., complete removal of water",some decomposition occurred
same,Main impurity,"[4]; drying at 80° C., 0 hr",0.08%
same,Main impurity,"[4]; drying at 80° C., 8 hr",0.11%
same,Main impurity,"[4]; drying at 80° C., 16 hr",0.12%
same,Main impurity,"[4]; drying at 80° C., 24 hr",0.14%
same,Main impurity,"[4]; drying at 100° C., 0 hr",0.08%
same,Main impurity,"[4]; drying at 100° C., 8 hr",0.32%
same,Main impurity,"[4]; drying at 100° C., 16 hr",0.44%
same,completeness of drying (in words),[5]; drying at 60° C. over 24 hours,not complete
same,Main impurity,[5]; 0 hr,0.08%
same,Main impurity,[5]; 8 hr,0.08%
same,Main impurity,[5]; 12 hr,0.08%
same,Main impurity,[5]; 24 hr,0.10%
same,purity on anhydrous substance,"[2]; 30° C./65% relative humidity, 0 months",100.2
same,purity on anhydrous substance,"[2]; 30° C./65% relative humidity, 3 months",98.4
same,purity on anhydrous substance,"[2]; 40° C./75% relative humidity, 0 months, dihydrochloride",100.2
same,purity on anhydrous substance,"[2]; 40° C./75% relative humidity, 1 month, dihydrochloride",100.8
same,purity on anhydrous substance,"[2]; 40° C./75% relative humidity, 3 months, dihydrochloride",98.2
same,purity on anhydrous substance,"[2]; 40° C./75% relative humidity, 6 months, dihydrochloride",98.4
same,degradation observed (in words),"[2]; 40° C./75% relative humidity, dihydrochloride",some degradation is observed
same,loss of purity,"[2]; within six months, 40° C./75% relative humidity",2%
same,water content,"[3]; batch stored under Good Manufacturing Practice, 0 months",1 % in weight
same,water content,"[3]; batch stored under Good Manufacturing Practice, 6 months",2 % in weight
same,water content,"[3]; batch stored under Good Manufacturing Practice, 11 months",4 % in weight
same,hygroscopicity (in words),[3]; dihydrochloride,hygroscopic
same,hygroscopicity (in words),"[3]; listed as dihydrochloride salt, dihydrochloride",too hygroscopic
